Data reported in PubChem BioAssay AID330 (DTP/NCI, 2004).
Where “and” joins values, the source holds several entries; their conditions need not be identical. Equal entries are not always repeated. Toxic doses and inconclusive results are not listed. Rule for the calls: active = survival T/C of 150% or more; inactive = T/C below 125% in these data.

System: P388 leukemia ip, CD2F1 mice, survival T/C
Experiment: NCI In Vivo Anticancer Drug Screen. Data for tumor model P388 Leukemia (intraperitoneal) in CD2F1 (CDF1) mice
Conditions: endpoint: median survival time, higher = longer survival
How it was run: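 Mice carrying the transplanted tumor received test compound or vehicle. Survival was recorded in each group, and the value is the treated-group measurement divided by that of the vehicle-treated control group.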

[1] = dose: 25.0 mg/kg/injection, schedule: Q01DX009 (ip), vehicle: saline
[2] = dose: 50.0 mg/kg/injection, schedule: Q01DX009 (ip), vehicle: saline
[3] = dose: 100.0 mg/kg/injection, schedule: Q01DX009 (ip), vehicle: saline

Measured: T/C

CN(C)CCCn1c2ccccc2c2cnccc21
inactive: [1] 100 % of control | dose: 25.0 mg/kg/injection, schedule: Q04DX003 (ip), vehicle: saline 100 % of control | [2] 100 % of control | dose: 50.0 mg/kg/injection, schedule: Q04DX003 (ip), vehicle: saline 95 % of control | [3] 109 % of control | dose: 100.0 mg/kg/injection, schedule: Q04DX003 (ip), vehicle: saline 95 % of control

CN(C)CCC(=O)c1cccc([N+](=O)[O-])c1
inactive: dose: 12.5 mg/kg/injection, schedule: Q01DX009 (ip), vehicle: saline 104 % of control | [1] 101 % of control | [2] 104 % of control and 109 % of control | [3] 98 % of control

Oc1ccccc1C=NCCSSCCN=Cc1ccccc1O
inactive: dose: 60.0 mg/kg/injection, schedule: Q01DX005 (ip), vehicle: Klucel (hydroxypropylcellulose) (HPC) 106 % of control | dose: 120.0 mg/kg/injection, schedule: Q01DX005 (ip), vehicle: Klucel (hydroxypropylcellulose) (HPC) 101 % of control | dose: 240.0 mg/kg/injection, schedule: Q01DX005 (ip), vehicle: Klucel (hydroxypropylcellulose) (HPC) 108 % of control

Cc1ccc(N=C2C(=O)Nc3ccccc32)cc1
inactive: dose: 50.0 mg/kg/injection, schedule: Q04DX002 (ip), vehicle: saline with Tween-80 108 % of control | dose: 100.0 mg/kg/injection, schedule: Q04DX002 (ip), vehicle: saline with Tween-80 105 % of control | dose: 200.0 mg/kg/injection, schedule: Q04DX002 (ip), vehicle: saline with Tween-80 104 % of control

NC(=O)N=Nc1c(F)c(F)c(F)c(F)c1F
inactive: dose: 6.25 mg/kg/injection, schedule: Q01DX005 (ip), vehicle: saline with Tween-80 103 % of control | dose: 12.5 mg/kg/injection, schedule: Q01DX005 (ip), vehicle: saline with Tween-80 106 % of control | dose: 25.0 mg/kg/injection, schedule: Q01DX005 (ip), vehicle: saline with Tween-80 116 % of control | dose: 50.0 mg/kg/injection, schedule: Q01DX005 (ip), vehicle: saline with Tween-80 116 % of control | dose: 100.0 mg/kg/injection, schedule: Q01DX005 (ip), vehicle: saline with Tween-80 113 % of control

COC(=O)c1ccc(SCCCN2CCOCC2)cc1
inactive: [3] 91 % of control | dose: 176.0 mg/kg/injection, schedule: Q04DX003 (ip), vehicle: saline 90 % of control | dose: 200.0 mg/kg/injection, schedule: Q01DX009 (ip), vehicle: saline 91 % of control | dose: 264.0 mg/kg/injection, schedule: Q04DX003 (ip), vehicle: saline 95 % of control | dose: 400.0 mg/kg/injection, schedule: Q01DX009 (ip), vehicle: saline 100 % of control | dose: 400.0 mg/kg/injection, schedule: Q04DX003 (ip), vehicle: saline 104 % of control

CCCCCC(=O)Nc1ncc([N+](=O)[O-])s1
inactive: dose: 50.0 mg/kg/injection, schedule: Q01DX009 (ip), vehicle: Klucel (hydroxypropylcellulose) (HPC) 116 % of control | dose: 100.0 mg/kg/injection, schedule: Q01DX009 (ip), vehicle: Klucel (hydroxypropylcellulose) (HPC) 113 % of control | dose: 200.0 mg/kg/injection, schedule: Q01DX009 (ip), vehicle: Klucel (hydroxypropylcellulose) (HPC) 98 % of control

O=[N+]([O-])c1ccc(C(Nc2nncs2)Nc2nncs2)cc1
inactive: dose: 50.0 mg/kg/injection, schedule: Q01DX005 (ip), vehicle: Klucel (hydroxypropylcellulose) (HPC) 100 % of control | dose: 100.0 mg/kg/injection, schedule: Q01DX005 (ip), vehicle: Klucel (hydroxypropylcellulose) (HPC) 103 % of control | dose: 200.0 mg/kg/injection, schedule: Q01DX005 (ip), vehicle: Klucel (hydroxypropylcellulose) (HPC) 119 % of control

CN1CCCC(OC(=O)Oc2ccccc2)C1 (centres undefined)
inactive: dose: 50.0 mg/kg/injection, schedule: Q01DX001 (ip), vehicle: other 101 % of control | dose: 100.0 mg/kg/injection, schedule: Q01DX001 (ip), vehicle: other 100 % of control | dose: 200.0 mg/kg/injection, schedule: Q01DX001 (ip), vehicle: other 102 % of control | dose: 400.0 mg/kg/injection, schedule: Q01DX001 (ip), vehicle: other 99 % of control

COc1cccc2c1C(=O)c1c(O)c(C(CC(=O)O)OC3CC(N)C(O)C(C)O3)c(CO)c(O)c1C2=O (centres undefined)
inactive: dose: 100.0 mg/kg/injection, schedule: Q04DX003 (ip), vehicle: water 106 % of control | dose: 200.0 mg/kg/injection, schedule: Q04DX003 (ip), vehicle: water 110 % of control

COc1cc(Cc2nnc(N)[nH]c2=O)cc(OC)c1OC
inactive: dose: 6.25 mg/kg/injection, schedule: Q01DX009 (ip), vehicle: saline with Tween-80 97 % of control | dose: 12.5 mg/kg/injection, schedule: Q01DX009 (ip), vehicle: saline with Tween-80 91 % of control | dose: 100.0 mg/kg/injection, schedule: Q01DX001 (ip), vehicle: Klucel (hydroxypropylcellulose) (HPC) 116 % of control | dose: 200.0 mg/kg/injection, schedule: Q01DX001 (ip), vehicle: Klucel (hydroxypropylcellulose) (HPC) 89 % of control | dose: 400.0 mg/kg/injection, schedule: Q01DX001 (ip), vehicle: Klucel (hydroxypropylcellulose) (HPC) 100 % of control
